Among the test systems are HOP-92 NSCLC; HOP-62 NSCLC; HCT-116 colon; SK-MEL-28 melanoma; U251 CNS; IGROV1 ovarian; COLO 205 colon; HL-60(TB) leukemia; SNB-75 CNS; SF-295 CNS.
Common to all, as to test: inhibition of tumour cell growth, NCI panel, 48 h

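96-well plates; 48 h exposure; 5 concentrations. Endpoints by linear interpolation between flanking doses. Not reached: highest tested concentration assigned. Abbreviation: GI50, concentration required for 50% inhibition of growth. TGI: concentration producing complete growth inhibition.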 A value given as a limit tells only on which side of the number the result lay.

For `CCCCCCCC/C=C/CCCCCCCC1=NC(C)(C)CN1C(C)C`, the GI50 was 0.819 µM in the test on HOP-92 NSCLC; 1.58 µM with HOP-62 NSCLC; 1.4 µM with HCT-116 colon; 1.53 µM in the test on SK-MEL-28 melanoma; 1.62 µM in the test on U251 CNS; 0.868 µM in the test on IGROV1 ovarian. The GI50 in the test with COLO 205 colon is 0.516 µM; in the test with HL-60(TB) leukemia it was 1.62 µM; in the test with SNB-75 CNS it was 1.56 µM; in the test on SF-295 CNS it was 1.64 µM. The TGI is 2.6 µM with HOP-92 NSCLC; 2.92 µM in the test on HOP-62 NSCLC; 2.7 µM with HCT-116 colon; 2.86 µM with SK-MEL-28 melanoma; 3 µM with U251 CNS; 2.14 µM in the test with IGROV1 ovarian. Besides, the TGI worked out at 2.09 µM in the test with COLO 205 colon, 3.25 µM with HL-60(TB) leukemia, 2.9 µM with SNB-75 CNS and 3.07 µM in the test on SF-295 CNS.

Regarding `COc1ccc(-c2cnc3ccnn3c2-c2cc(OC)c(OC)c(OC)c2)cc1`, the GI50 with HOP-92 NSCLC was above 100 µM; with HOP-62 NSCLC, 7.49 µM; in the test on HCT-116 colon it was 2.97 µM; in the test with SK-MEL-28 melanoma, 10 µM; with U251 CNS, 4.64 µM; with IGROV1 ovarian, 5.25 µM. For the same compound, the GI50 in the test with COLO 205 colon was 2.1 µM; in the test with HL-60(TB) leukemia it was 2.3 µM; in the test on SNB-75 CNS it was 2.2 µM; in the test with SF-295 CNS, 1.93 µM. The TGI with HOP-92 NSCLC, in the test with HOP-62 NSCLC, in the test on HCT-116 colon, in the test with SK-MEL-28 melanoma, with U251 CNS and with IGROV1 ovarian was above 100 µM throughout. The TGI was 5.51 µM with COLO 205 colon, 7.16 µM in the test on HL-60(TB) leukemia, 62.7 µM in the test on SNB-75 CNS and 20 µM with SF-295 CNS.

Take `CCOC(=O)c1c(-c2ccccc2)[n+](=O)c2ccc(Cl)cc2n1[O-]`: the GI50 was 1.93 µM with HOP-92 NSCLC; 8.64 µM in the test on HOP-62 NSCLC; 3.72 µM in the test with HCT-116 colon; 18 µM in the test on SK-MEL-28 melanoma; 2.68 µM in the test with U251 CNS; 3.93 µM in the test on IGROV1 ovarian. The GI50 in the test on COLO 205 colon is 3.89 µM; in the test on HL-60(TB) leukemia, 5.66 µM; with SNB-75 CNS, 3.18 µM; in the test on SF-295 CNS it was 4.87 µM. In addition, the TGI with HOP-92 NSCLC came to 4.91 µM; with HOP-62 NSCLC, 20.8 µM; in the test on HCT-116 colon it was 16.4 µM; in the test on SK-MEL-28 melanoma, 52.7 µM; in the test with U251 CNS, 8.57 µM; with IGROV1 ovarian it was 16.5 µM. The TGI is 13.6 µM in the test with COLO 205 colon, 20.3 µM in the test on HL-60(TB) leukemia, 18.8 µM with SNB-75 CNS and 19.1 µM in the test on SF-295 CNS.

In the case of `O=C1/C(=C\C(Cl)=C/c2ccc([N+](=O)[O-])cc2)SC(=S)N1CCc1ccc(O)cc1`, the GI50 is 1.6 µM with HOP-92 NSCLC; 1.41 µM in the test with HOP-62 NSCLC; 0.201 µM with HCT-116 colon; 0.626 µM in the test with SK-MEL-28 melanoma; 0.261 µM in the test with U251 CNS; 0.512 µM in the test with IGROV1 ovarian. For the same compound, the GI50 in the test with COLO 205 colon is 0.882 µM; with HL-60(TB) leukemia, 0.341 µM; with SNB-75 CNS it was 1.08 µM; in the test on SF-295 CNS, 0.501 µM. The TGI was 3.29 µM in the test on HOP-92 NSCLC; 4.22 µM in the test with HOP-62 NSCLC; 0.455 µM with HCT-116 colon; 1.96 µM in the test on SK-MEL-28 melanoma; 0.85 µM in the test on U251 CNS; 1.68 µM in the test on IGROV1 ovarian. The TGI in the test with COLO 205 colon is 3.64 µM; with HL-60(TB) leukemia, 6.63 µM; in the test on SNB-75 CNS, 2.35 µM; in the test on SF-295 CNS it was 1.06 µM.

As to `O=C(Nc1nccs1)c1cc2c(cc1Cl)Sc1nccn1S2(=O)=O`, the TGI in the test with HOP-92 NSCLC is 39.4 µM; with HOP-62 NSCLC, 30.2 µM; in the test on HCT-116 colon, 29.5 µM; in the test on SK-MEL-28 melanoma, 37.6 µM; with U251 CNS it was 31 µM; with IGROV1 ovarian it was 29.8 µM. The TGI with COLO 205 colon was determined as 30.7 µM; with HL-60(TB) leukemia, 31.2 µM; with SNB-75 CNS it was 35.4 µM; with SF-295 CNS it was 34.5 µM. Besides, the GI50 in the test on HOP-62 NSCLC is 14.8 µM; in the test with HCT-116 colon, 16.1 µM; in the test on SK-MEL-28 melanoma it was 20 µM; with U251 CNS, 17.2 µM; in the test on IGROV1 ovarian it was 11.7 µM; in the test with HL-60(TB) leukemia it was 13.6 µM. In addition, the values for the GI50 with SNB-75 CNS and in the test on SF-295 CNS were 18.8 µM and 18.3 µM, respectively.

As to `CC(=O)OCc1cc(OC(C)=O)cnc1COC(C)=O`, the TGI in the test on HOP-92 NSCLC, in the test on HOP-62 NSCLC, with HCT-116 colon, with SK-MEL-28 melanoma, with U251 CNS and in the test with IGROV1 ovarian was above 100 µM each time. For the same compound, the TGI with COLO 205 colon, in the test with HL-60(TB) leukemia, in the test on SNB-75 CNS and in the test on SF-295 CNS was above 100 µM in each case.

For `CN(C)CCCN(c1nc(C(Cl)(Cl)Cl)ns1)c1nc(C(Cl)(Cl)Cl)ns1`, the GI50 in the test on HOP-92 NSCLC is 1.64 µM; with HOP-62 NSCLC, 1.64 µM; with HCT-116 colon, 1.66 µM; in the test with SK-MEL-28 melanoma, 1.9 µM; with U251 CNS, 1.76 µM; with IGROV1 ovarian, 2.27 µM. Also, the GI50 in the test on COLO 205 colon is 1.47 µM; in the test on HL-60(TB) leukemia, 1.52 µM; with SNB-75 CNS, 2.17 µM; with SF-295 CNS, 1.7 µM. Besides, the TGI with HOP-92 NSCLC was determined as 5.33 µM; in the test with HOP-62 NSCLC, 3.07 µM; in the test with HCT-116 colon, 3.34 µM; with SK-MEL-28 melanoma it was 3.5 µM; in the test with U251 CNS it was 3.22 µM; in the test with IGROV1 ovarian, 4.92 µM. Further, the TGI in the test on COLO 205 colon turned out to be 2.85 µM; in the test with HL-60(TB) leukemia, 3.43 µM; in the test with SNB-75 CNS, 7.89 µM; in the test on SF-295 CNS, 3.6 µM.

Consider `Cn1ncc2c(/N=C/c3cccs3)[nH]c(=S)nc21`, for which the GI50 in the test with HOP-92 NSCLC was 61.2 µM; in the test with HOP-62 NSCLC, 52.9 µM; in the test on HCT-116 colon it was 33.9 µM; with SK-MEL-28 melanoma it was 56.5 µM; in the test on U251 CNS it was 43.1 µM; with IGROV1 ovarian, above 61.2 µM. The GI50 with COLO 205 colon was 22.8 µM; in the test on HL-60(TB) leukemia it was 43.6 µM; with SNB-75 CNS, above 63.7 µM; in the test with SF-295 CNS, 41.1 µM. Moreover, the TGI in the test on HOP-92 NSCLC is above 100 µM; in the test on HOP-62 NSCLC, above 93.8 µM; in the test with HCT-116 colon, 98 µM; in the test with SK-MEL-28 melanoma it was above 100 µM; in the test with U251 CNS, above 100 µM; in the test on IGROV1 ovarian it was above 100 µM. The TGI is 65.7 µM in the test on COLO 205 colon, above 100 µM with HL-60(TB) leukemia, above 100 µM with SNB-75 CNS and above 83.3 µM in the test with SF-295 CNS.
